Source: patent publication US20020058295A1, “Method of screening candidate compounds for susceptibility to oxidative metabolism” (priority 1998, published 2002)
Like-named read-outs stand apart in the source and are kept apart here.

Key:
[1] = molecular target: T1, CYP3A4 (Homo sapiens, UniProt P08684); test: HPLC monitoring of potential phenacetin metabolites after incubation with CYP3A4OR; format: in vitro ADME; parameters: Glaxo Wellcome Inc. (gift); conditions: phenacetin 92 μM; CYP3A4OR 0.5 or 1 mg/ml; NADPH 1 mM; 10 or 30 min
T1 sequence (P08684 whole entry): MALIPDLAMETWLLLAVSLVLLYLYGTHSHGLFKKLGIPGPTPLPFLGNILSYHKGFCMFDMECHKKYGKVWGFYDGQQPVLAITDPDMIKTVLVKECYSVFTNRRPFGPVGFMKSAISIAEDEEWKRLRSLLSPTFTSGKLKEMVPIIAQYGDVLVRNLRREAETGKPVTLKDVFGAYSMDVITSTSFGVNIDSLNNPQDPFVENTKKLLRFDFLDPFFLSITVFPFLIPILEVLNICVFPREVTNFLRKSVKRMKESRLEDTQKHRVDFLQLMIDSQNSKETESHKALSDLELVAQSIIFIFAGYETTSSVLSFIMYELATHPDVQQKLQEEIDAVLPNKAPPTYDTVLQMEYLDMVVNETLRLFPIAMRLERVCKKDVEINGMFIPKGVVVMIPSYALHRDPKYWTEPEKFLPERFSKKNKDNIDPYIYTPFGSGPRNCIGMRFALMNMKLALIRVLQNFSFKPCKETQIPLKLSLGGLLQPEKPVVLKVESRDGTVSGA
Procedure: Briefly, acetonitrile (0.4 ml) was added to a reaction mixture (0.5 ml) of phenacetin as described previously. The resultant solution was mixed and centrifuged (15,000×3 min). An aliquot (100 μl) of the supernatant was injected to an Advantage 100 5 micron C18 column (4.6×250 mm, Thomas Liquid Chromatography). The mobile phase comprised CH3CN and H2O with a gradient from 1 to 99% CH3CN over 20 min at a flow rate of 1 ml/min. Phenacetin and its potential metabolites were monitored at 244 nm.
Potential metabolites of phenacetin were monitored by HPLC. […] Phenacetin (92 μM) was incubated with CYP3A4oR (0.5 or 1 mg/ml) and NADPH (1 mM) for 10 or 30 min. Incubation in the absence of NADPH was used as control.

[2] = molecular target: T1, CYP3A4; test: DCF formation during CYP3A4-mediated metabolism of substrates (CYP3A4OR, DCFH-DA, NADPH)
Procedure: A fluorogenic probe 2′, 7′-dichlorodihydrofluorescin-diacetate (DCFH-DA) was added to a CYP-mediated reaction mixture containing a substrate, isoenzyme, and NADPH in Tris buffer (50 mM, pH 7.4). The substrate comprised testosterone. Metabolism of the substrate was examined by measurement of formation of the resulting metabolite (prior art method) and/or 2′, 7′-dichlorofluroescein (DCF; method in accordance with the present invention) which was converted from the DCFH-DA in the presence of the ROS produced by CYP-mediated reactions. Dextromethorphan and benzyloxyresorufin served as two additional substrates, and phenacetine (not a CYP3A4 substrate) as a negative control for CYP3A4 to test whether the method of the present invention could differentiate substrates with different metabolic rates or substrates from non-substrates.
Initial studies were conducted to examine whether DCF was formed during CYP-mediated oxidation using testosterone hydroxylation by CYP3A4OR. A reaction mixture (total 2 ml) comprising DCFH-DA (5.36 μM), CYP3A4OR (0.5 mg/ml) and testosterone (50 μM) in Tris buffer (50 mM, pH 7.4) was prepared. The reaction was initiated by adding NADPH (0.5 mM) and allowed to proceed at room temperature. The fluorescent spectra (emission and excitation) of DCF formed from the incubation was determined using LS50B Luminescence Spectrometer (Perkin-Elmer, Norwalk, Conn.). The spectra were compared with that of standard DCF in Tris buffer (50 mM, pH 7.4). An incubation mixture that contained all the components as described previously except for DCFH-DA served as a control.
(§1) Metabolism—After obtaining the maximal excitation and emission wavelengths of DCF under experimental conditions, the fluorescent signals at the maximal excitation and emission wavelengths were determined for incubation reactions that contained 12.5, 25, and 50 μM testosterone to test whether DCF formation was dependent on testosterone concentrations. The incubation conditions were the same as those described above. The formation of DCF at 10 min post addition of NADPH was calculated based on the standard curve of DCF. The standard curve covered DCF concentrations ranging from 0.05 to 50 nM. In parallel, DCF formation was determined with incubation reactions that were devoid of any of NADPH, CYP3A4 or testosterone.
DCFH-DA (1, 2.5 or 5 μM) was incubated with CYP3A4OR (0.5 mg/ml protein), testosterone (33 μM), and NADPH (1 mM) in Tris buffer. DCF concentration was measured at 5, 10, 20 and 30 min. The effect of NADPH concentration on DCF formation at 20 and 30 min was examined with incubations containing NADPH (0.5, 1 or 2 mM), testosterone (33 μM), and DCFH-DA (2.5 μM).
(§2) DCFH-DA (2.5 ,μM) was incubated with testosterone (5-40 4 μM), CYP3A4OR (0.5 mg/ml protein) and NADPH (1 mM) in Tris buffer. The total incubation volume was 1 ml. The formation of DCF was measured at 10 and 20 min post addition of NADPH. Triplicate incubations were performed at each concentration. A Michaelis-Menten function was used to fit to DCF formation rate vs. testosterone concentration data to obtain estimates of the relevant kinetic parameters using the nonlinear least-squares regression method (Winnonlin Scientific Consulting Co., Apex, N.C.). Parallel experiments were conducted to obtain the kinetic parameters based on measurement of 6β-OH testosterone, a specific CYP3A4-mediated metabolite of testosterone, with the HPLC-UV method. The concentration range of testosterone used for the HPLC-UV method was 10 to 75 μM.
Dextromethorphan (2-100 μM), benzyloxyresorufin (5-100 μM), or phenacetin (48 μM) was incubated with CYP3A4OR (0.5 or 1 mg/ml), DCFH-DA (2.5 μM) and NADPH (1 mM) in Tris buffer. In the case of benzyloxyresorufin, pluronic F-68 (2%, 5 μl) was added to the reaction mixture (Crespi et al., Ana. Biochem. 248:188-190). DCF formation was measured at timed intervals.

[3] = molecular target: T1, CYP3A4; test: 6β-OH testosterone formation during CYP3A4-mediated testosterone metabolism, HPLC-UV method; conditions: recombinant CYP3A4OR
Procedure: as §1
as §2, with “Parallel experiments were conducted to obtain the kinetic parameters based on measurement of 6β-OH testosterone, a specific CYP3A4-mediated metabolite of testosterone, with the HPLC-UV method. The concentration range of testosterone used for the HPLC-UV method was 10 to 75 μM.” left out

[4] = molecular target: T1, CYP3A4; conditions: Crespi et al., Anal. Biochem. 248:188-190 (1997); cited from earlier work
[5] = molecular target: T2, CYP1A2 (Homo sapiens, UniProt P05177); conditions: 5 min
T2 sequence (P05177 1-516): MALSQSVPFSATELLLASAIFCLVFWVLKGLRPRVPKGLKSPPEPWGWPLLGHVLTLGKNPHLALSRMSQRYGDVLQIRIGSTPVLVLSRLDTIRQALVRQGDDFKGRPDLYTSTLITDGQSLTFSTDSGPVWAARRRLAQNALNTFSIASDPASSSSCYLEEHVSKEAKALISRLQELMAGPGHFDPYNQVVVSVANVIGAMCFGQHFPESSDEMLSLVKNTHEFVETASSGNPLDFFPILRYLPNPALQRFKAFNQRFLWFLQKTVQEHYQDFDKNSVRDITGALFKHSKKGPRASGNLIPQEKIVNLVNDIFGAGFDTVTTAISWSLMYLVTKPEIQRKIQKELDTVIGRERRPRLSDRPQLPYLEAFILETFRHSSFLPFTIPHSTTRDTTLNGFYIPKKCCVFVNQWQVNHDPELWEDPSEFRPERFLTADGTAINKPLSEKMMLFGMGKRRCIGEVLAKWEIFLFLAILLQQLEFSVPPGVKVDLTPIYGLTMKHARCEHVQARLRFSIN
Procedure: The effect of furafylline, a specific inhibitor of CYP1A2, on CYP1A2-mediated ethoxyresorufin metabolism was also examined. Furafylline (1 and 10 ,μM) was pre-incubated with CYP1A2 SUPERSOME™ (180 μg/ml protein) and NADPH (4 mM) in Tris buffer in a total volume of 0.5 ml for 10 min. Then ethoxyresorufin (5 μM), DCFH-DA (5 μM), and supplemental NADPH was added to the mixture. The reaction proceeded for 5 min.

[6] = substrate: CCOc1ccc2nc3ccc(=O)cc-3oc2c1; test: DCF formation during CYP1A2-mediated metabolism of ethoxyresorufin (CYP1A2 SUPERSOME); format: in vitro ADME, human; conditions: other: CYP1A2 SUPERSOME 90 μg/ml; DCFH-DA 5 μM; 15 min
Procedure: (§3) Initial experiments were conducted to examine ethoxyresorufin concentration-dependent formation of DCF. Ethoxyresorufin (0.5, 5, 50 μM) was incubated with CYP1A2 SUPERSOME™ (sold under this trademark by Gentest Corp., Woburn, Mass.) (90 μg/ml protein), DCFH-DA (5 μM) and NADPH (1 mM). Formation of resorufin and DCF for the sample was measured at 8 and 10 min, respectively. The kinetic parameters then were obtained by incubating ethoxyresorufin (0.5-2.5 μM) with CYP1A2 SUPERSOME™ (90 μg/ml protein), DCFH-DA (5 μM), and NADPH (1 mM) for 5 min for measurement of resorufin formation and 15 min for measurement of DCF formation. Formation of DCF and resorufin was determined by fluorescence spectrophotometry. All experiments were performed in triplicate unless otherwise indicated.

[7] = substrate: CCOc1ccc2nc3ccc(=O)cc-3oc2c1; test: Resorufin formation during CYP1A2-mediated metabolism of ethoxyresorufin (fluorescence spectrophotometry); format: in vitro ADME, human; conditions: other: CYP1A2 SUPERSOME 90 μg/ml; 5 min
Procedure: Resorufin, a common metabolite of ethoxyresorufin by CYP1A2 and of benzyloxyresorufin by CYP3A4, was measured by fluorescence spectrophotometry as described above for DCF, with excitation and emission wavelength at 570 and 583 nm, respectively.
as §3

[8] = read-out: Apparent Km by measurement of DCF formation, CYP3A4OR, DCFH-DA 2.5 μM, NADPH 1 mM, Michaelis-Menten fit

CCOc1ccc(NC(C)=O)cc1 [Phenacetin, N-[4-ethoxyphenyl] acetamide]
metabolites found by prior art HPLC methods [1]: no detectable metabolites | DCF formation from potential metabolism by CYP3A4 (in words) ([2]; human, 48 μM, pH 7.4): ^aPhenacetin was not significantly metabolized by CYP3A4, and DCF formation was not sufficiently high to allow measurement.

C[C@]12CC[C@H]3[C@@H](CCC4=CC(=O)CC[C@@]43C)[C@@H]1CC[C@@H]2O [Testosterone]
Km [3]: 43.4 µM | Km ([2]; human, pH 7.4, Apparent Km by measurement of DCF formation, CYP3A4OR, DCFH-DA 2.5 μM, NADPH 1 mM, Michaelis-Menten fit): 11.9 µM | Km by DCF measurement lower than Km by 6β-OH testosterone measurement ([2]; ratio of the two Km values): approximately 3.5 fold | Km [2, 8]: 12 ± 3.58 µM

O=c1ccc2nc3ccc(OCc4ccccc4)cc3oc-2c1 [Benzyloxyresorufin, 7-benzyloxyresorufin]
Vmax for benzyloxyresorufin by CYP3A4 [4]: 0.31 min⁻¹ | Apparent Vmax by measurement of DCF formation ([2]; CYP3A4OR, DCFH-DA 2.5 μM, NADPH 1 mM, Michaelis-Menten fit): 1.17 ± 0.14 pmol DCF/min/mg pr. | Km [2, 8]: 3.79 ± 2.34 µM

Cc1nc2c([nH]1)c(=O)n(C)c(=O)n2Cc1ccco1 [furafylline]
DCF formation ([5]; 1 μM): 83.9 ±10.2 % of the control | DCF formation ([5]; 10 μM): 73.9±7.0 % of the control

B1: CYP1A2 (Homo sapiens) (protein)
chain: MALSQSVPFSATELLLASAIFCLVFWVLKGLRPRVPKGLKSPPEPWGWPLLGHVLTLGKNPHLALSRMSQRYGDVLQIRIGSTPVLVLSRLDTIRQALVRQGDDFKGRPDLYTSTLITDGQSLTFSTDSGPVWAARRRLAQNALNTFSIASDPASSSSCYLEEHVSKEAKALISRLQELMAGPGHFDPYNQVVVSVANVIGAMCFGQHFPESSDEMLSLVKNTHEFVETASSGNPLDFFPILRYLPNPALQRFKAFNQRFLWFLQKTVQEHYQDFDKNSVRDITGALFKHSKKGPRASGNLIPQEKIVNLVNDIFGAGFDTVTTAISWSLMYLVTKPEIQRKIQKELDTVIGRERRPRLSDRPQLPYLEAFILETFRHSSFLPFTIPHSTTRDTTLNGFYIPKKCCVFVNQWQVNHDPELWEDPSEFRPERFLTADGTAINKPLSEKMMLFGMGKRRCIGEVLAKWEIFLFLAILLQQLEFSVPPGVKVDLTPIYGLTMKHARCEHVQARLRFSIN
notes: purchased Gentest Corp. (Woburn, Mass.)
Km [6]: 3.46 ± 1.07 µM | Km [7]: 4.89 ± 1.71 µM
